Experimental data: patent EP0693064B1, “HYDROPHOBIC AMINOCOUMARIN DERIVATIVES AND THEIR USE AS PROTEOLYTIC ENZYME SUBSTRATES OR IN THE PREPARATION OF SUCH SUBSTRATES” (priority 1993, dated 1994)
“Also recorded” adds a separate entry of the source.

Assays:
Enterococcus faecalis = test: Agar test with incorporated fluorogenic substrates (L-alanine aminoaryl peptidase activity), fluorescence of colonies; assay type: cell-based; details: Gram +, substrate in agar 10 to 300 µg/ml, pH 7, overnight at 37°C, UV 365 nm
Excerpt: (§1) Cette différenciation fait appel à une méthode spécifique de discrimination optique des bactéries à coloration de Gram(+) ou Gram(-), qui est réalisée par l'utilisation de substrats fluorogénes de la L-alanine amino arylpeptidase, activité enzymatique retrouvée principalement dans la paroi des bactéries à coloration de Gram(-), comme il est décrit par Cerny G dans European Journal of Applied Microbiology, 1976, 3, p. 223-225, et 1978 5, p. 113-122.
(§2) Dans cet exemple, on utilise cette méthode de détection des activités enzymatiques bactériennes de la L-alanine aminoaryl peptidase avec les substrats fluorogènes S107, S108 et S109 utilisant les composés 10e, 10c et 10d des exemples 15, 13 et 14. Ces substrats sont incorporés à la gélose selon la méthode énoncée par Manafi & Kneifel dans Journal of Applied Bacteriology 1990, 69, p. 822-827.
(§3) Tous les substrats (composés 10c, 10d et […]) sont incorporés à la gélose à différentes concentrations couvrant une gamme de 10 à 300µg/ml.
(§4) Les composés sont préalablement dissous dans le DMSO et dilués dans de l'eau bi-distillée pour constituer des solutions mères à 800µg/ml, qui peuvent être conservées au moins une semaine à +4°C. Les solutions mères sont diluées ensuite pour délivrer les paliers de concentrations définis à 10, 50, 100, 200 et 300µg/ml.
(§5) Ces substrats sont ajoutés à la gélose à 45°C (une température de 85°C fut tolérée par les substrats), préalablement tamponnée à pH=7 et stérilisée par autoclavage. Les boîtes de gélose sont ensuite ensemencées d'une suspension de colonies, stérilement, à l'öse de platine par stries transversales et selon la méthode des quadrants. L'incubation est poursuivie durant une nuit à 37°C.
(§6) Pour chaque concentration on réalise un banc sans colonies et pour chaque type bactérien, un contrôle de culture sans substrat, de sorte que l'on ne puisse observer que les effets de la présence simultanée des colonies et du substrat incorporé à la gélose.
(§7) La révélation des bactéries Gram(-), rendues fluorescentes par le fluorophore S107, S108 ou S109 libéré est réalisée sous lampe UV à une longueur d'onde d'excitation de 365nm, compatible avec les dispositifs commercialisés. L'émission fluorescente impressionne un papier film 35mm Kodak® Ektar® 1000/30° pour un temps d'exposition au 1/60ème de seconde-process C-41.

Escherichia coli = test: as above; assay type: cell-based; details: Gram -, substrate in agar 10 to 300 µg/ml, pH 7, overnight at 37°C, UV 365 nm
Excerpt: as §1, §2, §3, §4, §5, §6, §7

bactéries = test: Toxicity of the substrates towards the bacteria in the agar test; assay type: cell-based; details: substrate in agar 10 to 300 µg/ml, high concentration = 300 µg/ml
Experimental: as §3, §4, §5, §6

[1] = Diffusion of the released dye in the agar; assay type: physicochemical; details: in the agar (gélose)
Experimental: as §3, §5
La révélation des bactéries Gram(-), rendues fluorescentes par le fluorophore S107, S108 ou S109 libéré est réalisée sous lampe UV à une longueur d'onde d'excitation de 365nm, compatible avec les dispositifs commercialisés. […]
Les colorants ne diffusent pas dans la gélose, de sorte que la fluorescence n'est émise que par les colonies bactériennes au site de leur croissance. Egalement, les réactions positives (fluorescence claire, lumineuse intense, des colonies Gram négatives sur un fond translucide, estompé bleu/vert pâle, fluorescence d'intensité plus faible pour les bactéries Gram positives) s'observent dès les concentrations faibles à 10µg/ml, ce qui confirme l'utilité de la nature hydrophobe des substrats, de l'absence de diffusion qui en découle et donc de l'efficacité des substrats préparés.

[2] = system: bactéries Gram(+) et Gram(-); test: Differentiation of Gram(+) and Gram(-) bacteria with fluorogenic substrates incorporated in agar; assay type: cell-based; details: in agreement with Gram staining
Excerpt: Exemple 22. Cet exemple illustre l'utilisation des dérivés de coumarines des exemples 13, 14 et 15 pour La différenciation des bactéries Gram(+) et Gram(-)par incorporation de ces dérivés de coumarines et révélation des colonies fluorescentes.
as §1, §2
Tous les substrats (composés 10c, 10d et […]) sont incorporés à la gélose à différentes concentrations couvrant une gamme de 10 à 300µg/ml. […]

Row | Compound | Test gélose aux substrats (fluorescence) (Enterococcus faecalis) | Test gélose aux substrats (fluorescence) (Escherichia coli) | Toxicité (bactéries) | Diffusion [1] | discrimination des bactéries Gram négatives des bactéries Gram positives [2]
1 | CCCCCCCCCc1cc(=O)oc2cc(NC(=O)[C@H](C)N)ccc12 [S107] | Fluorescence très faible | Fluorescence moyenne | faible; also recorded: non toxiques; also recorded: Toxicité partielle à forte concentration | non diffusibles; also recorded: Diffusion nulle | –
2 | CCCCCCc1cc(=O)oc2cc(NC(=O)[C@H](C)N)ccc12 [S108] | Fluorescence faible | Fluorescence très importante | non toxiques; also recorded: Toxicité nulle | non diffusibles; also recorded: Diffusion nulle | très efficaces
